The test system of series [1] is caterpillars of the owlet moth (Spodoptera exigua). Description: Spodoptera exigua Test. In kind it is in vivo. The following applies: active compound concentration of 0.0008%; after 6 days; dipped cabbage leaves (Brassica oleracea). The procedure: Solvent: 7 parts by weight of dimethylformamide
Emulsifier: 1 part by weight of alkylaryl polyglycol ether
After the desired period of time, the kill in % is determined. 100% means that all caterpillars have been killed; 0% means that none of the caterpillars have been killed.

A short description of series [2]: logP determination by HPLC (EEC Directive 79/831 Annex V. A8). In kind it is physicochemical. The following applies: pH 2; pH2; HPLC gradient method, acetonitrile/0.1% strength aqueous phosphoric acid. The procedure: [logP=The logP values were determined in accordance with EEC Directive 79/831 Annex V. A8 by HPLC (gradient method, acetonitrile/0.1% strength aqueous phosphoric acid]

In series [1], `CCc1nccc(N(C(=O)Cc2ccc(Oc3ccc(C(N)=S)cc3)cc2)C(=O)OC(C)C)c1Cl` [Preparation Example 1, N-(3-chloro-2-ethyl-pyridin-4-yl)-N-isopropoxycarbonyl-4-(4-aminothiocarbonylphenoxy)-phenylacetamide] returned a kill in % of 100%. Also, the chromatographic logP in series [2] was found to be 3.71.

The values are drawn from patent US6335325B1, “Acylated 4-aminopyridine derivatives as pesticides and fungicides” (Bayer Aktiengesellschaft, priority 1997, dated 2002).
